Read-outs that look alike come from different tables or passages of the source.
Columns and labels:
[1] = target: human phosphodiesterase-5 (PDE5) (Homo sapiens (Human), UniProt O76074); experiment: PDE5 assay: formation of 5'GMP from cGMP, PDE5 enzyme isolated from human platelets
Protocol: Purpose: Evaluation of the effects of compounds of the present invention on the activity of the human phosphodiesterase-5 quantified by measuring the formation of 5′GMP from cGMP using PDE5 enzyme isolated from human platelets.
Thereafter, the reaction is initiated by addition of the enzyme and the mixture is incubated for 60 min at 22° C.
For basal control measurements, the enzyme is omitted from the reaction mixture. Following incubation SPA beads are added. After 20 min at 22° C. under shaking, the amount of [3H]5′GMP is quantified with a scintillation counter (Topcount, Packard).

[2] = system: phenylephrine-precontracted rat aortic rings; experiment: Isometric tension studies on rat aortic rings (relaxation of phenylephrine-precontracted rings); details: for potency and efficacy compared to intact endothelium, in words: L-NAME (FIG. 2C) or mechanical removal of endothelium (FIG. 2D); for EC50 / Emax: Rattus norvegicus
Protocol: After 1 week of acclimatization, rats were anesthetized. Appropriate depth of anesthesia was determined by the absence of the leg flexor response and the eyelid reflex. Then, the thorax was quickly opened by a midline incision, and the rat was sacrificed by cutting the heart and exsanguination.
Indomethacin (1 μM) was added to the saline solution.
Eligible rings were then washed several times to restore tension to the baseline level.
In some experiments, the entire length of the thoracic aorta was functionally denuded of the endothelial layer by gently scraping the luminal surface with a 1.5 mm glass rod. […] Rings were then washed several times to restore tension to the baseline level.
Indomethacin (1 μM) was added to the saline solution. […] Only vessels with at least 60% relaxation to 1 μM ACh from the tension with 300 nM were eligible.
The preparations were allowed to equilibrate for 60 min in Krebs with high glucose (25 mM) before contraction to a new single concentration of PE (300 nM).
Finally, sodium nitroprusside (0.1 mM) was added, in order to obtain maximum relaxation of arterial rings.
The amount of relaxation (percent values as means±SEM) was quantified as percent relaxation from the tension (plateau) achieved with phenylephrine.
Data are presented as mean±SEM. Statistical analysis of results has been performed by analysis of variance (ANOVA) either parametric or non-parametric (Kruskal-Wallis), followed by Bonferroni test or Dunn tests as appropriate (GraphPad Software Inc, San Diego, CA, USA). Significance was accepted when P<0.05. Non-linear regression was conducted with GraphPad Software).

[3] = system: human pulmonary artery smooth muscle cells (hPASMC); experiment: Measurements of cGMP in human pulmonary artery smooth muscle cells (hPASMC); type: cell-based; details: incubation 15 or 30 min
Protocol: Human Pulmonary Artery Smooth Muscle Cells (hPASMC) were purchased from Clonetics™ Lonza (Lonza, reference number CC-2581) and cultured in Clonetics™ smooth muscle growth medium (Clonetics™ SmGM™-2 with BulletKit™ growth factor supplements (Lonza, reference number CC-3182) at 37° C. in 500 CO2. Culture medium was replaced each 48 hours. Cells were grown in 75 cm^2 culture plates. 48 h before the experiments, cells were trypsinized (Trypsin kit One ReagentPack™ (CC-5034), Lonza) and plated in 96 well plates precoated with collagen I at 10000 cells per well. 24 h before the experiments culture medium was replaced by serum-reduced (0.5% FBS) medium.
Measurements of intracellular cGMP were performed using the Amersham cGMP EIA System (GE Healthcare, RPN226) following the instructions of the manufacturer. The assay has a sensitivity of 2 fmol cGMP per well. Briefly, incubations were terminated by adding Amersham's lysis buffer 1 and cells left for 10 min under agitation to ensure complete lysis. cGMP in samples was then acetylated using triethylamine and acetic anhydride and determined by a competitive ELISA. The ELISA is based on the competition between acetylated cGMP in cell culture lysates and a peroxidase-labelled cGMP conjugate for limited binding sites on a cGMP specific antiserum immobilized on pre-coated 96 well MTP. cGMP was determined based on a standard curve. […]

Compound: (E)-2-(4-(4-ethoxy-3-(6-((methoxyimino)methyl)-5-methyl-4-oxo-7-propyl-3,4-dihydropyrrolo [1,2-f][1,2,4]triazin-2-yl)phenylsulfonyl)piperazin-1-yl)ethyl nitrate [Compound 1ai]
- % inhibition at 5.0E−09M [1]: 0.3%

Compound: CCCc1c(/C=N/O)c(C)c2c(=O)[nH]c(-c3cc(S(=O)(=O)N4CCN(CCCO)CC4)ccc3OCC)nn12 [Compound 1an, (E)-2-(2-ethoxy-5-(4-(3-hydroxypropyl)piperazin-1-ylsulfonyl)phenyl)-5-methyl-4-oxo-7-propyl-3,4-dihydropyrrolo[1,2-f][1,2,4]triazine-6-carbaldehyde oxime]
- IC50 ([1]; human platelet PDE5): 0.42 nM

Compound: CCCc1c(/C=N/O)c(C)c2c(=O)[nH]c(-c3cc(S(=O)(=O)N4CCN(C)CC4)ccc3OCC)nn12 [Compound 1a, (E)-2-(2-ethoxy-5-((4-methylpiperazin-1-yl)sulfonyl)phenyl)-5-methyl-4-oxo-7-propyl-3,4-dihydropyrrolo[2,1-f][1,2,4]triazine-6-carbaldehyde oxime]
- IC50 ([1]; human platelet PDE5): 0.25 nM

Compound: CCCOc1ccc(S(=O)(=O)N2CCC(CCO)CC2)cc1-c1nn2c(CCC)c(/C=N/O)c(C)c2c(=O)[nH]1 [Compound 1r, (E)-2-(5-((4-(2-hydroxyethyl)piperidin-1-yl)sulfonyl)-2-propoxyphenyl)-5-methyl-4-oxo-7-propyl-3,4-dihydropyrrolo[2,1-f][1,2,4]triazine-6-carbaldehyde oxime]
- potency and efficacy compared to intact endothelium, in words [2]: largely impaired
- EC50 ([2]; High Glucose (25 mM)): 2.79 nM
- Emax ([2]; High Glucose (25 mM)): 51%
- EC50 ([2]; Intact Endothelium (E+)): 0.0074 nM
- Emax ([2]; Intact Endothelium (E+)): 91.9%
- EC50 ([2]; L-NAME (100 μM)): 0.935 nM
- Emax ([2]; L-NAME (100 μM)): 60.4%
- EC50 ([2]; Without Endothelium): 5.94 nM
- Emax ([2]; Without Endothelium): 39.8%
- relaxation of rat aortic rings, comparison in words ([2]; intact endothelium (FIG. 2A)): more potent and effective than Sildenafil
- IC50 [1]: 0.16 nM
- cGMP in hPASMC, activity compared to sildenafil [3]: significantly higher activity as compared to the reference inhibitor sildenafil

Compound: CCCOc1ccc(S(=O)(=O)N2CCN(C)CC2)cc1-c1nn2c(CCC)c(/C=N/OC)c(C)c2c(=O)[nH]1 [Compound 1o, (E)-5-methyl-2-(5-((4-methylpiperazin-1-yl)sulfonyl)-2-propoxyphenyl)-4-oxo-7-propyl-3,4-dihydropyrrolo[2,1-f][1,2,4]triazine-6-carbaldehyde O-methyl oxime]
- IC50 ([1]; human platelet PDE5): 0.53 nM

Compound: CCCOc1ccc(S(=O)(=O)N2CCC(CCO[N+](=O)[O-])CC2)cc1-c1nn2c(CCC)c(/C=N/O)c(C)c2c(=O)[nH]1 [Compound 1v, (E)-2-(1-((3-(6-((hydroxyimino)methyl)-5-methyl-4-oxo-7-propyl-3,4-dihydropyrrolo[2,1-f][1,2,4]triazin-2-yl)-4-propoxyphenyl)sulfonyl)piperidin-4-yl)ethyl nitrate]
- potency and efficacy compared to intact endothelium, in words [2]: superior
- relaxation of rat aortic rings, comparison in words ([2]; intact endothelium (FIG. 2A)): more potent and effective than Sildenafil
- relaxation of rat aortic rings, comparison in words ([2]; pre-exposed to high glucose 25 mM (FIG. 2B)): clearly more potent and efficacious than 1r
- cGMP in hPASMC, activity compared to sildenafil [3]: significantly higher activity as compared to the reference inhibitor sildenafil

Compound: (E)-2-(2-ethoxy-5-(4-(2-hydroxyethyl)piperidin-1-ylsulfonyl)phenyl)-5-methyl-4-oxo-7-propyl-3,4-dihydropyrrolo[1,2-f][1,2,4]triazine-6-carbaldehyde oxime [Compound 1al]
- % inhibition at 5.0E−09M ([1]; 5.0E−09M, percent inhibition of control enzyme activity): 84.9%
- IC50 ([1]; human platelet PDE5): 0.48 nM

Source: patent US12351585B2, “2-phenyl-3,4-dihydropyrrolo[2,1-f] [1,2,4]triazinone derivatives as phosphodiesterase inhibitors and uses thereof” (TOPADUR PHARMA AG, priority 2015, dated 2025)
